Test results: patent US11332459B2 (TEIJIN PHARMA LIMITED, priority 2017, dated 2022)

Each compound was assayed against T1, human TRPC6 (Homo sapiens, UniProt Q9Y210) (assay: TRPC6 calcium flux assay (FLIPR, OAG-stimulated calcium influx)). Settings: HEK293 cells stably transfected with human TRPC6, read-out: hTRPC6 Potency.
T1 construct: expressed in transfected cells
T1 sequence (Q9Y210 1-931): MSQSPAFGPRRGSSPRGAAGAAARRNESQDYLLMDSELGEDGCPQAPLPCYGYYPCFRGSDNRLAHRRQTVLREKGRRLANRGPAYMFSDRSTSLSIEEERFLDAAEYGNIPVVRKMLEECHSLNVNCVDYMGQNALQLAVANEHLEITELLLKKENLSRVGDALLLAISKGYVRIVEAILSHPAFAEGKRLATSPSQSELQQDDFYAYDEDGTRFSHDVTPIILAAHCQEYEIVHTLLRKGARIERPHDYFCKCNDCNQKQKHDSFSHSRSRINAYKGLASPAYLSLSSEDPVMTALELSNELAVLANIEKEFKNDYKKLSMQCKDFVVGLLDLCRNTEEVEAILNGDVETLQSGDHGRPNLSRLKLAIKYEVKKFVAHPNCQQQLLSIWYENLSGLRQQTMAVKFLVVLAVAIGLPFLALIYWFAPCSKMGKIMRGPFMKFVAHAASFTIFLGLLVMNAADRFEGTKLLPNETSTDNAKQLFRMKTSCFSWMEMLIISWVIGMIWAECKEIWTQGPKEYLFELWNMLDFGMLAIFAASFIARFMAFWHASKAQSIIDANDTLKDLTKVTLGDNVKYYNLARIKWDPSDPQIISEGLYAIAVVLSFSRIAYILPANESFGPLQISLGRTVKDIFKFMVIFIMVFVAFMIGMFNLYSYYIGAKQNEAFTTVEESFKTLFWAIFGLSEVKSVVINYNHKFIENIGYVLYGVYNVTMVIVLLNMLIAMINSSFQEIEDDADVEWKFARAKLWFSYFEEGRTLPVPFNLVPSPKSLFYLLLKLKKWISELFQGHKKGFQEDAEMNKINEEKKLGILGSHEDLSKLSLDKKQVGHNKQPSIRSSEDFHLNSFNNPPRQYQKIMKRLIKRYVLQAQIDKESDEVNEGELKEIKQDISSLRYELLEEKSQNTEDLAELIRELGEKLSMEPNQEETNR
Assay type: cell-based
In short: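 HEK293 cells stably expressing human TRPC6, loaded with calcium dye 90–120 min at RT, then given compound for 25 min before OAG (50 uM final, 0.5% DMSO) in HEPES buffer pH 7.2 with 2 mM CaCl2. Background-subtracted FLIPR peak over 180 s normalized to OAG vs buffer; IC50 from dose plot.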

Row | IC50 [nM] | SMILES
1 | 368 | N[C@@H]1CN(c2nc3cc(F)c(F)cc3n2Cc2nnc(C3CC3)o2)CC[C@H]1F [Example 581, (3R,4R)-1-(1-((5-cyclopropyl-1,3,4-oxadiazol-2-yl)methyl)-5,6-difluoro-1H-benzo[d]imidazol-2-yl)-4-fluoropiperidin-3-amine]
2 | 376 | Cc1nnc(Cn2c(N3CC[C@@H](F)[C@H](N)C3)nc3cc(F)ccc32)s1 [Example 582, (3R,4R)-4-fluoro-1-(5-fluoro-1-((5-methyl-1,3,4-thiadiazol-2-yl)methyl)-1H-benzo[d]imidazol-2-yl)piperidin-3-amine]
3 | 420 | N[C@@H]1CN(c2nc3cc(F)cnc3n2Cc2ncc(Cl)cn2)CC[C@H]1F [Example 583]
4 | 546 | N[C@@H]1CN(c2nc3cc(F)ccc3n2Cc2nc(C(F)(F)F)no2)CC[C@H]1F [Example 584, (3R,4R)-4-fluoro-1-(5-fluoro-1-((3-(trifluoromethyl)-1,2,4-oxadiazol-5-yl)methyl)-1H-benzo[d]imidazol-2-yl)piperidin-3-amine]
5 | 579 | Cc1nc(-c2ccccc2)sc1Cn1c(N2CC[C@@H](F)[C@H](N)C2)nc2ccc(F)cc21 [Example 585, (3R,4R)-4-fluoro-1-(6-fluoro-1-((4-methyl-2-phenylthiazol-5-yl)methyl)-1H-benzo[d]imidazol-2-yl)piperidin-3-amine]
6 | 747 | Cc1nnc(Cn2c(N3CC[C@@H](F)[C@H](N)C3)nc3cc(F)c(F)cc32)n1C [Example 586, (3R,4R)-1-(1-((4,5-dimethyl-4H-1,2,4-triazol-3-yl)methyl)-5,6-difluoro-1H-benzo[d]imidazol-2-yl)-4-fluoropiperidin-3-amine]
7 | 765 | N[C@@H]1CN(c2nc3cc(F)ccc3n2Cc2nnc(C(F)F)s2)CC[C@H]1F [Example 587, (3R,4R)-1-(1-((5-(difluoromethyl)-1,3,4-thiadiazol-2-yl)methyl)-5-fluoro-1H-benzo[d]imidazol-2-yl)-4-fluoropiperidin-3-amine]
8 | 811 | Cc1nnc(Cn2c(N3CCC(F)(F)[C@H](N)C3)nc3ccc(F)cc32)s1 [Example 588, (R)-4,4-difluoro-1-(6-fluoro-1-((5-methyl-1,3,4-thiadiazol-2-yl)methyl)-1H-benzo[d]imidazol-2-yl)piperidin-3-amine]
9 | 1010 | Cc1nc(C)c(Cn2c(N3CC[C@@H](F)[C@H](N)C3)nc3ccc(F)cc32)s1 [Example 589, (3R,4R)-1-(1-((2,4-dimethylthiazol-5-yl)methyl)-6-fluoro-1H-benzo[d]imidazol-2-yl)-4-fluoropiperidin-3-amine]
10 | 1440 | Cc1nnc(Cn2c(N3CC[C@@H](F)[C@H](N)C3)nc3cc(F)cnc32)s1 [Example 590, (3R,4R)-4-fluoro-1-(6-fluoro-3-((5-methyl-1,3,4-thiadiazol-2-yl)methyl)-3H-imidazo[4,5-b]pyridin-2-yl)piperidin-3-amine]
11 | 1590 | CN(CC(F)(F)F)C(=O)Cn1c(N2CC[C@@H](F)[C@H](N)C2)nc2cc(F)cc(F)c21 [Example 591, 2-(2-((3R,4R)-3-amino-4-fluoropiperidin-1-yl)-5,7-difluoro-1H-benzo[d]imidazol-1-yl)-N-methyl-N-(2,2,2-trifluoroethyl)acetamide]
12 | 1730 | CN(C)C(=O)Cn1c(N2CC[C@@H](F)[C@H](N)C2)nc2cc(C(F)(F)F)ccc21 [Example 592, 2-(2-((3R,4R)-3-amino-4-fluoropiperidin-1-yl)-5-(trifluoromethyl)-1H-benzo[d]imidazol-1-yl)-N,N-dimethylacetamide]
13 | 2120 | Cc1nc(-c2ccccc2)sc1Cn1c(N2CC[C@@H](F)[C@H](N)C2)nc2cc(F)ccc21 [Example 593, (3R,4R)-4-fluoro-1-(5-fluoro-1-((4-methyl-2-phenylthiazol-5-yl)methyl)-1H-benzo[d]imidazol-2-yl)piperidin-3-amine]
14 | > 3750 | CN(C)C(=O)Cn1c(N2CC[C@@H](F)[C@H](N)C2)nc2cc(F)cc(F)c21 [Example 594, 2-(2-((3R,4R)-3-amino-4-fluoropiperidin-1-yl)-5,7-difluoro-1H-benzo[d]imidazol-1-yl)-N,N-dimethylacetamide]
15 | > 3750 | CS(=O)(=O)c1ccc(Cn2c(N3CC[C@@H](F)[C@H](N)C3)nc3cc(F)cc(F)c32)nc1 [Example 595, (3R,4R)-1-(5,7-difluoro-1-((5-(methylsulfonyl)pyridin-2-yl)methyl)-1H-benzo[d]imidazol-2-yl)-4-fluoropiperidin-3-amine]
16 | > 3750 | Cc1nc(C)c(Cn2c(N3CC[C@@H](F)[C@H](N)C3)nc3cc(F)ccc32)s1 [Example 596, (3R,4R)-1-(1-((2,4-dimethylthiazol-5-yl)methyl)-5-fluoro-1H-benzo[d]imidazol-2-yl)-4-fluoropiperidin-3-amine]
17 | > 3750 | Cc1nnc(Cn2c(N3CCC(F)(F)[C@H](N)C3)nc3cc(F)ccc32)s1 [Example 597, (R)-4,4-difluoro-1-(5-fluoro-1-((5-methyl-1,3,4-thiadiazol-2-yl)methyl)-1H-benzo[d]imidazol-2-yl)piperidin-3-amine]
18 | > 3750 | N[C@@H]1CN(c2nc3cc(F)cc(F)c3n2Cc2nnc(C(F)F)s2)CC[C@H]1F [Example 598, (3R,4R)-1-(1-((5-(difluoromethyl)-1,3,4-thiadiazol-2-yl)methyl)-5,7-difluoro-1H-benzo[d]imidazol-2-yl)-4-fluoropiperidin-3-amine]
19 | > 3750 | Cc1nnc(Cn2c(N3CC[C@@H](F)[C@H](N)C3)nc3cc(F)cc(F)c32)s1 [Example 599, (3R,4R)-1-(5,7-difluoro-1-((5-methyl-1,3,4-thiadiazol-2-yl)methyl)-1H-benzo[d]imidazal-2-yl)-4-fluoropiperidin-3-amine]
20 | 5.38 | CC1CCN1C(=O)Cn1c(N2CC[C@@H](F)[C@H](N)C2)nc2cc(F)c(F)cc21 (stereo partly drawn) [Example 600, 2-(2-((3R,4R)-3-amino-4-fluoropiperidin-1-yl)-5,6-difluoro-1H-benzo[d]imidazol-1-yl)-1-(2-methylazetidin-1-yl)ethanone]
21 | 5.56 | CN(CC(F)F)C(=O)Cn1c(N2CC[C@@H](F)[C@H](N)C2)nc2cc(F)c(F)cc21 [Example 601, 2-(2-((3R,4R)-3-amino-4-fluoropiperidin-1-yl)-5,6-difluoro-1H-benzo[d]imidazol-1-yl)-N-(2,2-difluoroethyl)-N-methylacetamide]
22 | 5.75 | CN(C(=O)Cn1c(N2CC[C@@H](F)[C@H](N)C2)nc2cc(F)c(F)cc21)C1CC1 [Example 602, 2-(2-((3R,4R)-3-amino-4-fluoropiperidin-1-yl)-5,6-difluoro-1H-benzo[d]imidazol-1-yl)-N-cyclopropyl-N-methylacetamide]
23 | 6.73 | C[C@H](C#N)N(C)C(=O)Cn1c(N2CC[C@@H](F)[C@H](N)C2)nc2cc(F)c(F)cc21 [Example 603, 2-(2-((3R,4R)-3-amino-4-fluoropiperidin-1-yl)-5,6-difluoro-1H-benzo[d]imidazol-1-yl)-N-((R)-1-cyanoethyl)-N-methylacetamide]
24 | 7.78 | C[C@H](c1ccccn1)N(C)C(=O)Cn1c(N2CC[C@@H](F)[C@H](N)C2)nc2cc(F)c(F)cc21 [Example 604]
25 | 7.9 | CCN(C)C(=O)Cn1c(N2CC[C@@H](F)[C@H](N)C2)nc2cc(F)c(F)cc21 [Example 605, 2-(2-((3R,4R)-3-amino-4-fluoropiperidin-1-yl)-5,6-difluoro-1H-benzo[d]imidazol-1-yl)-N-ethyl-N-methylacetamide]
26 | 8.06 | CN(CCF)C(=O)Cn1c(N2CC[C@@H](F)[C@H](N)C2)nc2cc(F)c(F)cc21 [Example 606, 2-(2-((3R,4R)-3-amino-4-fluoropiperidin-1-yl)-5,6-difluoro-1H-benzo[d]imidazol-1-yl)-N-(2-fluoroethyl)-N-methylacetamide]
27 | 14.3 | N[C@@H]1CN(c2nc3cc(F)c(F)cc3n2CC(=O)N2C[C@H]3C[C@H]3C2)CC[C@H]1F [Example 607, 2-(2-((3R,4R)-3-amino-4-fluoropiperidin-1-yl)-5,6-difluoro-1H-benzo[d]imidazol-1-yl)-1-((1R,5S)-3-azabicyclo[3.1.0]hexan-3-yl)ethanone]
28 | 21.2 | C[C@@H](C#N)N(C)C(=O)Cn1c(N2CC[C@@H](F)[C@H](N)C2)nc2cc(F)c(F)cc21 [Example 610, 2-(2-((3R,4R)-3-amino-4-fluoropiperidin-1-yl)-5,6-difluoro-1H-benzo[d]imidazol-1-yl)-N-((S)-1-cyanoethyl)-N-methylacetamide]
